{
  "source": "patent US20050277627A1",
  "about": "“Colchinol derivatives as vascular damaging agents” (priority 2000, published 2005)",
  "key": {"[1]": {"test_system": "Hras5 tumours (NIH 3T3 fibroblasts transfected with Harvey ras, clone 5) in nude mice", "experiment": "Hras5 necrosis model", "format": "in vivo", "conditions": "25 mg/kg; single dose, culled 24 hours after dosing; male nude mice", "experimental": "NIH 3T3 fibroblasts transfected with Harvey ras, clone 5, (Hras5 cells) were kept in continual passage in Dulbecco's modifed Eagles medium (DMEM) containing 10% foetal bovine serum (FBS) and 1% glutamine, at 37° C. in a humidified incubator gassed with 7.5% carbon dioxide and 92.5% […]. Cells were implanted subcutaneously into the left flank of male nude mice (8-10 weeks of age) at an inoculum of 2×10^5 cells/mouse. Tumours were measured using calipers and randomised into groups of 2-4 mice between days 9-14 after implant. Mice were dosed with compounds, either intravenously or intraperitoneally, once on day of randomisation and culled 24 hours after dosing. Compounds were dissolved in 20% hydroxypropyl beta cyclodextrin in physiological saline at pH 7 and dosed in a volume of 0.1 ml per 10 g body weight. Tumours were excised, weighed and placed in buffered formalin. Area of necrosis in individual tumours was assessed from a haematoxylin/eosin stained-slide by a pathologist and scored from 0, meaning no significant change, to 10, meaning 91-100% necrosis. The activity of examples 5 and 7 (described hereinafter) against tumour vasculature was measured by the fluorescent dye method described hereinabove. Example 1 scored 6.6 at 25 mg/kg."}, "[2]": {"test_system": "tumour vasculature in CaNT tumour-bearing mice", "experiment": "Activity against tumour vasculature measured by fluorescent dye (Hoechst 33342)", "format": "in vivo", "conditions": "50 mg/kg intraperitoneally, dye injected 24 hours after drug treatment", "experimental": "(b) Activity Against Tumour Vasculature Measured by Fluorescent Dye\nTumour functional vascular volume in CaNT tumour-bearing mice was measured using the fluorescent dye Hoechst 33342 according to the method of Smith et al (Brit. Jnl. Cancer 1988, 57, 247-253). Five animals were used in control and treated groups. The fluorescent dye was dissolved in saline at 6.25 mg/ml and injected intravenously at 10 mg/kg 24 hours after intraperitoneal drug treatment. One minute later, animals were killed and tumours excised and frozen; 10 μm sections were cut at 3 different levels and observed under UV illumination using an Olympus microscope equipped with epifluorescence. Blood vessels were identified by their fluorescent outlines and vascular volume was quantified using a point scoring system based on that described by Chalkley, (Jnl. Natl. Cancer Inst., 1943, 4, 47-53). All estimates were based on counting a minimum of 100 fields from sections cut at the 3 different levels."}, "mammalian tubulin": {"test_system": "mammalian tubulin", "conditions": "O. Boye et al Med. Chem. Res., 1991, 1, 142-150; read-out: IC50 in a tubulin polymerisation assay; cited from earlier work"}},
  "data": [
    {"smiles": "COc1cc2c(c(OC)c1OC)-c1ccc(OC(=O)CCCC(=O)N3CCN(C(C)=O)CC3)cc1[C@@H](NC(C)=O)CC2", "note": "[Example 1, (5S)-5-Acetylamino-9,10,11-trimethoxy-6,7-dihydro-5H-dibenzo[a,c]cyclohepten-3-yl 5-(4-acetylpiperazin-1-yl)-5-oxopentanoate]", "values": [
      {"measurement": "necrosis score (0 = no significant change, 10 = 91-100% necrosis)", "setting": "[1]", "value": 6.6}
    ]},
    {"smiles": "COc1cc2c(c(OC)c1OC)-c1ccc(N)cc1C(NC(C)=O)CC2", "note": "(stereo not drawn) [N-[3-amino-9,10,11-trimethoxy-6,7-dihydro-5H-dibenzo[a,c]cyclohepten-5-yl]acetamide]", "values": [
      {"measurement": "decrease in perfused vascular volume relative to control", "setting": "[2]", "value": 88, "unit": "%"},
      {"measurement": "IC50", "setting": "mammalian tubulin", "value": 58, "unit": "µM"}
    ]}
  ]
}
